Source: patent US10689365B2, “Substituted 2-alkylimidazolylcarboxamides as pesticides” (Bayer CropScience Aktiengesellschaft, priority 2016, dated 2020)
Like-named read-outs stand apart in the source and are kept apart here.

Columns and labels:
[1] = test system: Myzus persicae; test: Myzus persicae - spray test (Chinese cabbage leaf discs); format: in vivo; conditions: application rate 500 g/ha, after 5-6 days; for pest or weed control at 500 g/ha: Myzus persicae, foliar, read-out: efficacy
Experimental: Myzus persicae—Spray Test
Solvent: 78 parts by weight of acetone • • 1.5 parts by weight of dimethylformamide
(§1) Emulsifier: alkylaryl polyglycol ether
(§2) To produce a suitable active compound preparation, 1 part by weight of active compound is dissolved using the stated parts by weight of solvent and made up with water containing an emulsifier concentration of 1000 ppm until the desired concentration is attained. To produce further test concentrations, the formulation is diluted with emulsifier-containing water.
Discs of Chinese cabbage leaves (Brassica pekinensis) infested by all stages of the green peach aphid (Myzus persicae) are sprayed with an active ingredient formulation of the desired concentration.
After 5-6 days, the efficacy in % is determined. 100% means that all the aphids have been killed; 0% means that no aphids have been killed.

[2] = log P by HPLC on reversed-phase (C18) columns, OECD Guideline 117; format: physicochemical; conditions: for chromatographic logP: reversed-phase (C18) HPLC column
Experimental: The log P values were determined in accordance with OECD Guideline 117 (EC Directive 92/69/EEC) by HPLC (high-performance liquid chromatography) using reversed-phase (RP) columns (C18), by the following methods:
[a] The LC-MS determination in the acidic range was carried out at pH 2.7 with 0.1% aqueous formic acid and acetonitrile (contains 0.1% formic acid) as mobile phases; linear gradient from 10% acetonitrile to 95% acetonitrile.
[b] LC-MS determination in the neutral range was carried out at pH 7.8 with 0.001 molar aqueous ammonium hydrogencarbonate solution and acetonitrile as mobile phases; linear gradient from 10% acetonitrile to 95% acetonitrile.

[3] = test system: Myzus persicae; test: Myzus persicae - oral test; format: in vivo; conditions: application rate 20 ppm, after 5 days; for pest or weed control at 20 ppm: Myzus persicae, po, 120 h, read-out: efficacy
Experimental: (§3) Solvent: 100 parts by weight of acetone
(§4) To produce a suitable preparation of active compound, 1 part by weight of active compound is dissolved using the specified parts by weight of solvent and made up with water until the desired concentration is attained.
(§5) 50 μl of the active compound preparation are transferred into microtitre plates and made up to a final volume of 200 μl with 150 μl of IPL41 insect medium (33%+15% sugar). Subsequently, the plates are sealed with parafilm, which a mixed population of green peach aphids (Myzus persicae) within a second microtitre plate is able to puncture and imbibe the solution through it.
After 5 days, the efficacy in % is determined. 100% means that all the aphids have been killed; 0% means that no aphids have been killed.

[4] = test system: Myzus persicae; test: Myzus persicae - spray test (MYZUPE), Chinese cabbage leaf discs; format: in vivo; conditions: foliar; for percent efficacy (aphid mortality) at 20 g/ha / Emax at 20 g/ha: 20 g of ai/ha; for percent efficacy (aphid mortality) at 100 g/ha: 100 g of ai/ha; for Emax at 20 g/ha: read-out: % efficacy
Experimental: Myzus persicae—Spray Test (MYZUPE)
Solvent: 78.0 parts by weight of acetone • • 1.5 parts by weight of dimethylformamide
as §1, §2
Discs of Chinese cabbage leaves (Brassica pekinensis) infested by all stages of the green peach aphid (Myzus persicae) are sprayed with an active compound preparation of the desired concentration.
(§6) After the desired period of time, the efficacy in % is determined. 100% means that all the aphids have been killed; 0% means that no aphids have been killed.

[5] = test system: Myzus persicae; test: Myzus persicae - drench test (MYZUPE D), Savoy cabbage in soil; format: in vivo; conditions: 240 h, 10 dat, read-out: % efficacy
Experimental: Myzus persicae—Drench Test (MYZUPE D)
To produce a suitable active compound preparation, 1 part by weight of active compound is mixed with the specified amounts of solvent and emulsifier, and the concentrate is diluted with water to the desired concentration, it being necessary to include the volume of soil which is drenched in the calculation. It should be ensured that a concentration of 40 ppm of emulsifier in the soil is not exceeded. To produce further test concentrations, water is used for dilution.
Savoy cabbage (Brassica oleracea) in pots with soil and infested by all stages of the green peach aphid (Myzus persicae) is watered with an active compound preparation of the desired concentration.
as §6

[6] = test system: Myzus persicae; test: Myzus persicae - oral test (MYZUPE O); format: in vivo; conditions: read-out: % efficacy
Experimental: Myzus persicae—Oral Test (MYZUPE O)
as §3, §4, §5, §6

[7] = test system: Aphis gossypii; test: Aphis gossypii - spray test (APHIGO S), cotton plants; format: in vivo; conditions: 144 h, 6 dat, read-out: % efficacy
Experimental: Aphis gossypii—Spray Test (APHIGO S)
Solvent: 14 parts by weight of dimethylformamide
as §1
as §2, with “water. If the addition of ammonium salts or/and penetrants is required, these are each added in a concentration of 1000 ppm to the formulation solution.” for “water.”
Cotton plants (Gossypium hirsutum) heavily infested by the cotton aphid (Aphis gossypii) are sprayed with an active ingredient formulation of the desired concentration.
After the desired time, the kill in % is determined. 100% means that all the aphids have been killed; 0% means that no aphids have been killed.

[8] = acidic range, pH 2.7, 0.1% aqueous formic acid/acetonitrile
[9] = neutral range, pH 7.8, aqueous ammonium hydrogencarbonate/acetonitrile
[10] = acidic range, pH 2.7, 0.1% aqueous formic acid/acetonitrile, read-out: logP[a]
[11] = neutral range, pH 7.8, aqueous ammonium hydrogencarbonate/acetonitrile, read-out: logP[n]

Row | Compound | logP[a] [2, 8] | logP[n] [2, 9] | chromatographic logP [2, 10] | chromatographic logP [2, 11] | efficacy [1] [%] | efficacy [3] [%] | pest or weed control at 500 g/ha [1] [%] | percent efficacy (aphid mortality) at 100 g/ha ([4]; 120 h, 5 dat) [%] | Emax at 4 ppm ([6]; 120 h, 5 dat) [%] | pest or weed control at 20 ppm [3] [%] | further results
1 | CN(C(=O)c1cnc(COc2cccc(Cl)c2)n1C)c1cccnc1 [Example I-1-24] | 1.69 | 2.02 |  |  | 100 | 90 |  |  |  |  | 
2 | CN(C(=O)c1cnc(COCc2ccccc2)n1C)c1cccnc1 [Example I-1-25] | 1.10 | 1.63 |  |  | 90 | 100 |  |  |  |  | 
3 | CCSCc1ncc(C(=O)N(C)c2cccnc2)n1C [Example I-1-27] |  |  | 0.46 | 1.18 |  |  | 90 | 90 | 100 | 100 | percent efficacy (aphid mortality) at 20 g/ha ([4]; 120 h, 5 dat): 90%; Emax at 0.16 ppm [5]: 98%; Emax at 0.8 ppm ([7]; 0.8 ppm): 98%; Emax at 4 ppm [7]: 100%
4 | CN(C(=O)c1cnc(CSC(C)(C)C)n1C)c1cccnc1 [Example I-1-33] |  |  | 0.97 | 1.67 |  |  | 100 | 90 | 100 | 100 | Emax at 20 g/ha ([4]; 120 h, 5 dat): 100%; Emax at 0.16 ppm [5]: 90%; Emax at 4 ppm [7]: 75%
5 | COC(=O)CSCc1ncc(C(=O)N(C)c2cccnc2)n1C [Example I-1-37] |  |  | 0.35 | 1.04 |  |  | 100 |  | 100 | 100 | 
6 | CN(C(=O)c1cnc(CSc2ccccc2)n1C)c1cccnc1 [Example I-1-38] |  |  | 1.14 | 1.73 |  |  | 90 |  | 100 | 90 | Emax at 0.8 ppm ([7]; 0.8 ppm): 60%; percent kill (mortality) of aphids at a fixed dose at 4 ppm [7]: 100%
7 | CN(C(=O)c1cnc(CSc2ccccc2Cl)n1C)c1cccnc1 [Example I-1-39] |  |  | 1.41 | 1.99 |  |  | 90 | 90 | 100 | 100 | percent efficacy (aphid mortality) at 20 g/ha ([4]; 120 h, 5 dat): 90%; Emax at 0.8 ppm ([7]; 0.8 ppm): 30%; Emax at 4 ppm [7]: 95%
8 | CN(C(=O)c1cnc(CSc2cccc(Cl)c2)n1C)c1cccnc1 [Example I-1-40] |  |  | 1.55 | 2.11 |  |  | 90 | 90 | 100 | 100 | 
9 | CN(C(=O)c1cnc(CSc2ccc(Cl)cc2)n1C)c1cccnc1 [Example I-1-41] |  |  | 1.57 | 2.07 |  |  | 90 | 90 | 100 | 100 | Emax at 20 g/ha ([4]; 120 h, 5 dat): 70%; Emax at 0.8 ppm ([7]; 0.8 ppm): 35%; Emax at 4 ppm [7]: 100%
10 | Cc1nc(C(=O)Nc2cccnc2)c[nH]1 [Prior art WO2011/009804 (Ex. 14), reference compound] |  |  |  |  |  |  |  | 0 | 0 |  | percent efficacy (aphid mortality) at 20 g/ha ([4]; 120 h, 5 dat): 0%
11 | O=C(Nc1cccnc1)c1c[nH]cn1 [Prior art WO 2011/009804 (Ex. 13), reference compound] |  |  |  |  |  |  |  |  |  |  | percent efficacy (aphid mortality) at 20 g/ha ([4]; 144 h, 6 dat): 0%; percent efficacy (aphid mortality) at 100 g/ha ([4]; 144 h, 6 dat): 0%; Emax at 4 ppm ([6]; 144 h, 6 dat): 0%
12 | Cc1ncc(C(=O)Nc2cccnc2)n1C [reference compound] |  |  |  |  |  |  |  | 70 |  |  | Emax at 20 g/ha ([4]; 120 h, 5 dat): 0%

Now from value to compound, other results behind:

Row | logP[a] [2, 8] | logP[n] [2, 9] | chromatographic logP [2, 10] | chromatographic logP [2, 11] | Compound | efficacy [1] [%] | efficacy [3] [%] | pest or weed control at 500 g/ha [1] [%] | percent efficacy (aphid mortality) at 100 g/ha ([4]; 120 h, 5 dat) [%] | Emax at 4 ppm ([6]; 120 h, 5 dat) [%] | pest or weed control at 20 ppm [3] [%] | further results
13 |  |  | 0.27 | 1.01 | CN(C(=O)c1cnc(CSc2ncccn2)n1C)c1cccnc1 [Example I-1-42] |  |  | 100 | 70 | 90 | 100 | 
14 |  |  | 0.35 | 0.81 | CN(C(=O)c1cnc(Cn2cccn2)n1C)c1cccnc1 [Example I-1-43, N,1-Dimethyl-2-(1H-pyrazol-1-ylmethyl)-N-(pyridin-3-yl)-1H-imidazole-5-carboxamide] |  |  | 100 |  | 100 | 100 | percent efficacy (aphid mortality) at 20 g/ha ([4]; 96 h, 4 dat): 90%; percent efficacy (aphid mortality) at 100 g/ha ([4]; 96 h, 4 dat): 90%; Emax at 0.16 ppm [5]: 70%; Emax at 0.8 ppm ([7]; 0.8 ppm): 30%; Emax at 4 ppm [7]: 98%
15 |  |  | 1.46 | 1.64 | CN(C(=O)c1cnc(Cn2ccc(C(F)(F)F)n2)n1C)c1cccnc1 [Example I-1-44] |  |  | 100 |  | 100 | 100 | percent efficacy (aphid mortality) at 20 g/ha ([4]; 96 h, 4 dat): 90%; percent efficacy (aphid mortality) at 100 g/ha ([4]; 96 h, 4 dat): 90%; Emax at 0.16 ppm [5]: 90%; Emax at 0.8 ppm ([7]; 0.8 ppm): 55%; Emax at 4 ppm [7]: 99%
16 |  |  | 1.34 | 1.59 | CN(C(=O)c1cnc(Cn2cc(C(F)(F)F)cn2)n1C)c1cccnc1 [Example I-1-45] |  |  | 90 |  | 100 | 100 | percent efficacy (aphid mortality) at 100 g/ha ([4]; 96 h, 4 dat): 100%; Emax at 0.16 ppm [5]: 80%; percent kill (mortality) of aphids at a fixed dose at 0.8 ppm ([7]; 0.8 ppm): 98%; percent kill (mortality) of aphids at a fixed dose at 4 ppm [7]: 100%
17 |  |  | 0.05 | 0.42 | CN(C(=O)c1cnc(Cn2ccnn2)n1C)c1cccnc1 [Example I-1-46] |  |  | 100 |  |  | 100 | percent efficacy (aphid mortality) at 20 g/ha ([4]; 144 h, 6 dat): 90%; percent efficacy (aphid mortality) at 100 g/ha ([4]; 144 h, 6 dat): 90%; Emax at 4 ppm ([6]; 144 h, 6 dat): 100%
18 | 0.18 | 1.10 |  |  | C=Cc1ncc(C(=O)N(CC)c2cccnc2)n1C [Example I-1-56] | 90 | 90 |  |  |  |  | 
19 | 1.63 | 2.00 |  |  | CN(C(=O)c1cnc(COc2ccc(Cl)cc2)n1C)c1cccnc1 [Example I-1-62] | 100 | 100 |  |  |  |  | 
20 | 0.84 | 1.36 |  |  | CN(C(=O)c1cnc(COCC(F)(F)F)n1C)c1cccnc1 [Example I-1-63] | 90 | 100 |  |  |  |  | 
21 | 0.18 | 0.92 |  |  | CCOCc1ncc(C(=O)N(C)c2cccnc2)n1C [Example I-1-64] | 100 | 100 |  |  |  |  | 
22 | 0.42 | 1.20 |  |  | CC(C)OCc1ncc(C(=O)N(C)c2cccnc2)n1C [Example I-1-65] | 90 | 100 |  |  |  |  | 
